Measured values as given in patent US20240197891A1, “PHARMACEUTICAL COMPOSITIONS COMPRISING POH DERIVATIVES” (UNIVERSITY OF SOUTHERN CALIFORNIA, priority 2021, published 2024).

How the values were obtained:
Format in all cases: in vivo, mouse
TNF-α = assay: Serum TNF-α following UV exposure
Method: (§1) SKH-1 hairless mice were treated with 10 mg/kg POH-LA conjugate freshly prepared daily. The POH-LA conjugate was formulated in glycerol:ethanol (90:10) while the control animals received the glycerol:ethanol vehicle only or the commercially available sunblock (Well & Good Sun Protection Wipes SPF 15). Additional test groups were treated with POH formulated in the glycerol:ethanol vehicle or linoleic acid formulated in the glycerol:ethanol vehicle. 50 μL of each formulation was placed on a area 1 cm^2 area that was exposed to the UV light. The mice were treated with their respective formulations after exposure to the UV light. In FIG. 22A, the mouse was treated with sunblock. In FIG. 22B, the mouse was treated with POH. In FIG. 22C, the mouse was treated with linoleic acid. In FIG. 22D, the mouse was treated with POH-LA conjugate. In FIG. […]:ethanol vehicle only. The POH-LA conjugate, POH or linoleic acid solutions were gently spread on the skin surface and allowed to air dry. The sunblock mouse was gently wiped on the exposure area with the sunblock towelette. This exposure and treatment went on for a maximum of 10 weeks. Throughout the experimental period the animals were photographed and weighed. At the end of the experimental period the mice were photographed and euthanized, followed by skin and blood collection. Blood was analyzed for markers of inflammation and DNA recovered from the exposed area of the skin and analyzed for markers of DNA damage.
(§2) Furthermore, blood samples were taken from each mouse 4 hours after the last cutaneous treatment. About 0.5 mL of blood was collected by cardiac puncture […]. Serum was aliquoted in Eppendorf tubes and store at −80° C. as preparation for cytokine analyses. […]
(§3) Mice were treated with 10 mg/kg POH-LA conjugate freshly prepared daily. […] Blood was analyzed for markers of inflammation and DNA recovered from the exposed area of the skin and analyzed for markers of DNA damage.

IL-1β = assay: Serum IL-1β following UV exposure
Method: as §1, §2, §3

UV-B exposed skin = assay: UV-B induced skin damage in SKH-1 hairless mice; settings: topical post exposure
Method: (§4) FIG. 23 illustrates the simulation of sunlight by irradiation with UVB lamps (310 nm). The irradiation was conducted in a phototoxicity testing chamber and fitted with a UV-B lamp providing with a spectral output of approximately 310 nm. The source of UVR was a short-wavelength UV lamp (VWR. Radnor, PA). The peak spectral output of this lamp was approximately 310 nm, with no energy detectable below 260 nm, approximately 0.6% between 260 and 280 nm (UV-C), 72.7% between 280 and 320 nm (UV-B), and 26.7% between 320 and 400 nm (UV-A). Radiation dosage of UV-B per irradiation was set at 54 mJ/cm^2 for the first week, 72 mJ/cm^2 for the second week, 90 mJ/cm^2 for the third week, and 108 mJ/cm^2 for the remaining weeks, as confirmed by a UV monitor. Each irradiation event was 10 minutes long.
POH-LA conjugate, linoleic acid, POH, and the additive combination of linoleic acid and POH were each suspended in glycerol:ethanol (90:10 vol/vol) to a final concentration of 10 nM with 50 μL and applied to each SKH-1 hairless mouse post UV-B exposure for treatment. The sunblock mouse was gently wiped on the exposure area with the sunblock towelette. […] In FIG. 23B, the mice were treated with the glycerol:ethanol vehicle only. In FIG. 23C, the mice were treated with POH. In FIG. 23D, the mice were treated with linoleic acid. In FIG. 23E, the mice were treated with an mixture of linoleic acid and POH. In FIG. 23F, the mice were treated with POH-LA conjugate. In FIG. 23G, the mice were treated with sunblock. The application of POH-LA conjugate to UV-B exposed tissue limits the amount of observable skin damage as compared to the untreated control (B) or the individual components of POH-LA conjugate either alone (POH—C and LA—D), in mixture (E), or with sunblock (G).
as §4, with “FIGS. 24A-D illustrates the” for “FIG. 23 illustrates the”, “UV lamp (VWR, Radnor, PA).” for “UV lamp (VWR. Radnor, PA).”, “second week, and 90 mJ/cm^2” for “second week, 90 mJ/cm^2”, “third week, as confirmed” for “third week, and 108 mJ/cm^2 for the remaining weeks, as confirmed”, “UV monitor.” for “UV monitor. Each irradiation event was 10 minutes long.”
POH-LA conjugate (FIG. 24A), linoleic acid (FIG. 24B), POH (FIG. 24C), and the additive combination of linoleic acid and POH (FIG. 24D) were each suspended in glycerol:ethanol (90:10 vol/vol) to a final concentration of 10 nM with 50 μL applied to each mouse post UV-B exposure for treatment. The application of POH-LA conjugate to UV-B exposed tissue limits the amount of observable skin damage as compared the individual components of POH-LA conjugate either alone or in mixture.
as §4, with “This example” for “FIG. 23”, “nm)” for “nm). The irradiation”, “(VWR,” for “(VWR.”, “monitor.” for “monitor. Each irradiation event was 10 minutes long.”
POH-LA conjugate, linoleic acid, POH, and the additive combination of linoleic acid and POH were each suspended in glycerol:ethanol (90:10 vol/vol) to a final concentration of 10 nM with 50 μL applied to each mouse post UV-B exposure for treatment. […]

[1] = 3 weeks of UV-B exposure and treatment
[2] = 5 weeks of UV-B exposure and treatment

| SMILES | TNF-α levels (TNF-α) [pg/mL] | IL-1β serum levels increase (IL-1β) [pg/mL] | observable skin damage (UV-B exposed skin; [1]) | observable skin damage (UV-B exposed skin; [2]) |
| --- | --- | --- | --- | --- |
| C=C(C)[C@@H]1CC=C(COC(=O)CCCCCCC/C=C\C/C=C\CCCCC)CC1 [POH-LA conjugate, Octadeca-9,12-dienoic acid 4-isopropenyl-cyclohex-1-enylmethyl ester] | 72.6 ± 22.8 | 6.4 ± 2.5 | displayed no damage | appeared the same as the unexposed control mice skin |
| C=C(C)[C@@H]1CC=C(CO)CC1 [POH, perillyl alcohol] | 103.2 ± 18.0 | 8.5 ± 3.0 | displayed damage | displayed damage |
